Oligonucleotides are written 5' to 3', each unit as a sugar letter and its base; * is a phosphorothioate linkage, no mark a phosphodiester; rarer units and linkages stand in square brackets, end groups in braces. Plain capitals give the bases only. e = 2'-O-(2-methoxyethyl) (MOE); [5mC] = 5-methylcytosine
Test system: IKBKAP pre-mRNA (mt19-21 minigene)
Experiment: Exon 20 inclusion in HEK-293 cells harboring the mt19-21 IKBKAP minigene (RT-PCR)
Format: cell-based, human
Details: Table 2 (microwalk experiment); HEK-293 with mt19-21 minigene, 0.007 nmol oligonucleotide by electroporation, RT-PCR two days later
How it was run: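 HEK-293 cells carrying the mt19-21 IKBKAP minigene were electroporated with 0.007 nmol uniform 2′-MOE phosphate-backbone antisense oligonucleotide (15- or 20-mers, 5-methylcytosines). After two days, RT-PCR with α^32P-dCTP-labeled amplicons, native PAGE and phosphorimaging gave exon 20 inclusion, normalized for G+C content.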

ISIS 421992: uniform 2′-MOE 20-mer, phosphate backbone; GTCGCAAACAGTACAATGGC, SEQ ID NO 61, intron 20 (eGeTe[5mC]eGe[5mC]eAeAeAe[5mC]eAeGeTeAe[5mC]eAeAeTeGeGe[5mC])
% inclusion (exon 20): 96%
